{"source": "patent US6878733B1", "about": "“Formulations for pharmaceutical agents ionizable as free acids or free bases” (Sugen, Inc., priority 1999, dated 2005)", "key": {"A375 human melanoma": {"system": "A375 human melanoma", "experiment": "SC tumor xenograft growth, A375", "assay_type": "in vivo", "conditions": "IP in DMSO, 75 mg/kg/d dosed 3x/week", "procedure": "(§1) In most experiments, compound was administered daily.\n(§2) Tumor growth was measured using venier calipers. Tumor volumes were calculated as the produce of length x width x height."}, "PDGF receptor": {"system": "PDGF receptor", "experiment": "Inhibition of signal transduction via PDGF receptor"}, "physchem": {"experiment": "physchem", "assay_type": "physicochemical"}, "FGF receptor": {"system": "FGF receptor", "experiment": "Inhibition of signal transduction via FGF receptor"}, "C6 rat glioma": {"system": "C6 rat glioma", "experiment": "SC tumor xenograft growth, C6, treatment from one day post-implantation", "assay_type": "in vivo, BALB/c nu/nu mice", "conditions": "IP", "procedure": "as §1, §2"}, "Flk-1/KDR": {"target": "Flk-1/KDR (Homo sapiens, UniProt P35968)", "sequence (P35968 20-1356)": "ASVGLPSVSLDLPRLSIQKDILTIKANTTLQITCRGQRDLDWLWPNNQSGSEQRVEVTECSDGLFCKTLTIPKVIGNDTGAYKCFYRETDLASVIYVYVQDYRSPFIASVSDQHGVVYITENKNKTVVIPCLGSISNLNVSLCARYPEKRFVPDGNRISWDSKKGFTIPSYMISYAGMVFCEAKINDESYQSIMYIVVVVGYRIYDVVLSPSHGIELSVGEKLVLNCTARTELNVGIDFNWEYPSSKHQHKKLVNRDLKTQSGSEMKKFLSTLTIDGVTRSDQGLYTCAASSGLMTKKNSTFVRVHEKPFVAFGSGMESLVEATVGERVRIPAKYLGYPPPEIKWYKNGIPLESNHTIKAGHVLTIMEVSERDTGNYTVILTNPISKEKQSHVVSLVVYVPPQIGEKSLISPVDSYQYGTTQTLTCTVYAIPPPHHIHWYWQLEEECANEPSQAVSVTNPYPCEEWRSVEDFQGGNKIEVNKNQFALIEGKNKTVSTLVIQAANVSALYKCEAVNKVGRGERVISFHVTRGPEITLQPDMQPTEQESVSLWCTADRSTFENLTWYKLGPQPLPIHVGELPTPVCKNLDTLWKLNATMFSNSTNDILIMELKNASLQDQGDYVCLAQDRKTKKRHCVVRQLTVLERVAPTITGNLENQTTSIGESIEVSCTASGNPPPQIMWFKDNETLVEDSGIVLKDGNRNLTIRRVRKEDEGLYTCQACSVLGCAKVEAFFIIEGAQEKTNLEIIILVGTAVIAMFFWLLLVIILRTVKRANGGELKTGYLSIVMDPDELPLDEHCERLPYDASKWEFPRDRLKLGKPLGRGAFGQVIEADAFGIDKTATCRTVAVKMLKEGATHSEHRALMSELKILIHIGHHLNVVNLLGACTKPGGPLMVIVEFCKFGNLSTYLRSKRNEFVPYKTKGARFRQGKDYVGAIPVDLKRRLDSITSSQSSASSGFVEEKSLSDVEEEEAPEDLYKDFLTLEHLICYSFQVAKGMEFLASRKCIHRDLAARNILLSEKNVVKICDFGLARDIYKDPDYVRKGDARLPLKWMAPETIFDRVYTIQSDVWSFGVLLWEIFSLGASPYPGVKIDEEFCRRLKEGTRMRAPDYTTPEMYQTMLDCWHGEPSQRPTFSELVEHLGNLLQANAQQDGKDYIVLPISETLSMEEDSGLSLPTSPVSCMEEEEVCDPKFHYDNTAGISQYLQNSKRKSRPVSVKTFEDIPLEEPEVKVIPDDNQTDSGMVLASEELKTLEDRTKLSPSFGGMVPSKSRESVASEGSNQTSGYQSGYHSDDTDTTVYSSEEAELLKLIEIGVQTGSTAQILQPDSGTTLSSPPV", "experiment": "Inhibition of signal transduction via Flk-1/KDR"}, "pH solubility profile": {"experiment": "pH solubility profile", "assay_type": "physicochemical", "conditions": "0.1 M phosphate buffer, thermodynamic from solid", "description": "The solution was filtered, appropriate dilutions made and the concentration of the compound in the supernatant was analyzed by a reverse phase HPLC method."}, "SF763T human glioma": {"system": "SF763T human glioma", "experiment": "SC tumor xenograft growth, SF763T", "assay_type": "in vivo, BALB/c nu/nu mice", "conditions": "IP in DMSO, 75 mg/kg/d daily", "procedure": "(§3) Medium was changed every two to three days.\nas §1, §2"}, "A431 human epidermal": {"system": "A431 human epidermal", "experiment": "SC tumor xenograft growth, A431", "assay_type": "in vivo, BALB/c nu/nu mice", "conditions": "IP in DMSO, 100 mg/kg/d daily", "procedure": "as §1, §2"}, "SF767T human glioma": {"system": "SF767T human glioma", "experiment": "SC tumor xenograft growth, SF767T", "assay_type": "in vivo, BALB/c nu/nu mice", "conditions": "IP in DMSO, 75 mg/kg/d daily", "procedure": "as §3, §1, §2"}, "C6 cells": {"system": "C6 cells", "experiment": "Efficacy on established C6 SC tumors", "assay_type": "in vivo, athymic mice", "conditions": "IP 75 mg/kg/day, onset delayed until measurable tumors were present (Day 7)"}, "[1]": {"system": "EpH4-VEGF1 murine epithelial", "experiment": "SC tumor xenograft growth, EpH4-VEGF1", "assay_type": "in vivo", "conditions": "IP in DMSO, 75 mg/kg/d daily", "procedure": "as §1, §2"}, "[2]": {"experiment": "Oral bioavailability of formulations in beagle dogs", "assay_type": "in vivo", "conditions": "at higher doses in fasted conditions", "procedure": "The formulation described below enhance the oral bioaviability of COMPOUND IV in beagle dogs, a preclinical absorption model.\nBoth formulations contain 50 mg/gm of Pluroanic F-68. The formulation at 50 mg/gm of COMPOUND IV contains 900 mgs of sesame oil and the one that contains 250 mg/gm of COMPOUND IV contains 700 mgs of sesame oil.\nAUC refers to the area under the curve of the plasma concentration time curve and represents oral bioavilability (BA). Higher AUC indicates higher BA."}, "[3]": {"experiment": "Solubility of in situ salts versus free acid", "assay_type": "physicochemical"}}, "data": [{"smiles": "Cc1[nH]c(C=C2C(=O)Nc3ccccc32)c(C)c1CCC(=O)O", "note": "[3-[2,4-Dimethyl-5-(2-oxo-1,2-dihydro-indol-3-ylidenemethyl)-1H-pyrrol-3-yl]-propionic acid]", "values": [{"measurement": "% Mortality", "setting": "A375 human melanoma", "result": 0, "unit": "%"}, {"measurement": "inhibitor of signal transduction via PDGF receptor", "setting": "PDGF receptor", "result": "potent inhibitor"}, {"measurement": "logP", "setting": "physchem", "result": 3.85}, {"measurement": "pKa", "setting": "physchem", "result": 5.02}, {"measurement": "logD", "setting": "physchem; pH 7.4", "result": 1.5}, {"measurement": "inhibitor of signal transduction via FGF receptor", "setting": "FGF receptor", "result": "potent inhibitor"}, {"measurement": "% Inhibition (at day)", "setting": "C6 rat glioma; 25 mg/kg Daily × 5, day 18, ns (P > 0.05)", "result": "1 (18) %"}, {"measurement": "tumor growth inhibition", "setting": "C6 rat glioma; 100 mg/kg twice weekly or three times weekly, statistically significant", "result": "approximately 40%"}, {"measurement": "inhibitor of signal transduction via Flk-1/KDR", "setting": "Flk-1/KDR", "result": "potent inhibitor"}, {"measurement": "solubility", "setting": "pH solubility profile; pH 6, aqueous buffer, pH of buffer 6.0 (0.1 M phosphate), average pH at equilibrium 6.06, two lots", "result": 2.4, "unit": "µg/mL"}, {"measurement": "solubility", "setting": "pH solubility profile; pH 6.5, aqueous buffer, pH of buffer 6.5 (0.1 M phosphate), average pH at equilibrium 6.52", "result": 4, "unit": "µg/mL"}, {"measurement": "solubility", "setting": "pH solubility profile; pH 7, aqueous buffer, pH of buffer 7.0 (0.1 M phosphate), average pH at equilibrium 6.96", "result": 9, "unit": "µg/mL"}, {"measurement": "solubility", "setting": "pH solubility profile; pH 7.4, aqueous buffer, pH of buffer 7.4 (0.1 M phosphate), average pH at equilibrium 7.39", "result": 19, "unit": "µg/mL"}, {"measurement": "% Mortality", "setting": "SF763T human glioma", "result": 12.5, "unit": "%"}, {"measurement": "% Mortality", "setting": "A431 human epidermal", "result": 12.5, "unit": "%"}, {"measurement": "% Mortality", "setting": "SF767T human glioma", "result": 12.5, "unit": "%"}, {"measurement": "efficacy on established tumors", "setting": "C6 cells", "result": "efficacious"}, {"measurement": "% Mortality", "setting": "[1]", "result": 0, "unit": "%"}]}, {"smiles": "Cc1[nH]c(/C=C2\\C(=O)Nc3ccccc32)c(C)c1CCC(=O)O", "note": "[COMPOUND IV, 3-[2,4-dimethyl-5-(2-oxo-1,2-dihydro-indol-3-ylidenemethyl)-1H-pyrrol-3-yl]-propionic acid]", "values": [{"measurement": "oral bioavailability", "setting": "[2]", "result": "low bioavailability"}]}, {"smiles": "Cc1[nH]c(C=C2C(=O)Nc3ccccc32)c(C)c1CCC(=O)O", "note": "[free acid, 3-[2,4-dimethyl-5-(2-oxo-1,2-dihydro-indol-3-ylidenemethyl)-1H-pyrrol-3-yl]-propionic acid]", "values": [{"measurement": "solubility", "setting": "[3]; water, aqueous, sodium salt compared to free acid, read-out: solubility", "result": "< 100", "unit": "µg/mL"}, {"measurement": "solubility", "setting": "[3]; water, free acid, for comparison with the sodium salt, read-out: aqueous solubility", "result": "~30", "unit": "µg/mL"}]}, {"smiles": "Cc1[nH]c(C=C2C(=O)Nc3ccccc32)c(C)c1CCC(=O)O", "note": "[Meglumine, 3-[2,4-dimethyl-5-(2-oxo-1,2-dihydro-indol-3-ylidenemethyl)-1H-pyrrol-3-yl]-propionic acid]", "values": [{"measurement": "solubility", "setting": "[3]; aqueous solution of the salt formed in situ, salt of 3-[2,4-dimethyl-5-(2-oxo-1,2-dihydro-indol-3-ylidenemethyl)-1H-pyrrol-3-yl]-propionic acid, in situ salt formation, pH in the column beside, read-out: Solubility", "result": 7900, "unit": "µg/mL"}]}]}
